Data from ChEMBL document CHEMBL1201862, “PubChem BioAssay data set” (2004).
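Cells were grown in 96-well plates and exposed to each compound for 48 hours at five concentrations; endpoints were interpolated linearly between bracketing concentrations, or set to the highest concentration if not reached. Here, GI50 denotes the concentration required for 50% inhibition of growth.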 Active and inactive are the calls of the source. Cut-off read from the data, not from the text of the source: active = GI50 up to about 1.1 µM and inactive = higher.

Legend:
Experiment in all cases: NCI-60 cell line screen, 48 h
786-0 = tested on: 786-0
A549 = tested on: A549
ACHN = tested on: ACHN
DU-145 = tested on: DU-145
EKVX = tested on: EKVX
HCT-116 = tested on: HCT-116
HOP-92 = tested on: HOP-92
HT-29 = tested on: HT-29
Hs-578T = tested on: Hs-578T
K562 = tested on: K562
MDA-N = tested on: MDA-N
Malme-3M = tested on: Malme-3M
NCI/ADR-RES = tested on: NCI/ADR-RES
OVCAR-3 = tested on: OVCAR-3
SK-MEL-28 = tested on: SK-MEL-28
SK-MEL-2 = tested on: SK-MEL-2
UACC-62 = tested on: UACC-62
UO-31 = tested on: UO-31
MOLT-4 = tested on: MOLT-4

SMILES	GI50 (786-0)	GI50 (A549)	GI50 (ACHN)	GI50 (DU-145)	GI50 (EKVX)	GI50 (HCT-116)	GI50 (HOP-92)	GI50 (HT-29)	GI50 (Hs-578T)	GI50 (K562)	GI50 (MDA-N)	GI50 (Malme-3M)	GI50 (NCI/ADR-RES)	GI50 (OVCAR-3)	GI50 (SK-MEL-28)	GI50 (SK-MEL-2)	GI50 (UACC-62)	GI50 (UO-31)	GI50 (MOLT-4)
N=C(N)NC(=N)Nc1ccc(S(=O)(=O)O)cc1	> 100 µM (inactive)	> 100 µM (inactive)	> 100 µM (inactive)	> 100 µM (inactive)	> 100 µM (inactive)	> 100 µM (inactive)	77.8 µM (inactive)	> 100 µM (inactive)	> 100 µM (inactive)	> 100 µM (inactive)	> 100 µM (inactive)	> 100 µM (inactive)	> 100 µM (inactive)	> 100 µM (inactive)	> 100 µM (inactive)	> 100 µM (inactive)	> 100 µM (inactive)	> 100 µM (inactive)	–
C=C1C(=O)O[C@@H]2C(=O)[C@@H](C)[C@@H]3C=CC(=O)[C@@]3(C)[C@@H](OC(=O)/C(C)=C\C)[C@H]12 [MULTISTATIN]	0.31 µM (active)	10.6 µM (inactive)	0.212 µM (active)	1.57 µM (inactive)	1.1 µM (active)	0.238 µM (active)	0.393 µM (active)	0.371 µM (active)	6.44 µM (inactive)	0.293 µM (active)	0.675 µM (active)	0.298 µM (active)	2.37 µM (inactive)	0.653 µM (active)	0.278 µM (active)	2.86 µM (inactive)	1.25 µM (inactive)	1.21 µM (inactive)	0.41 µM (active)
CC1S/C(=N/c2nnc(-c3ccccc3)o2)NC1=O (stereo not given)	28.3 µM (inactive)	37.6 µM (inactive)	46.5 µM (inactive)	81.3 µM (inactive)	27 µM (inactive)	17.7 µM (inactive)	> 100 µM (inactive)	27.7 µM (inactive)	> 100 µM (inactive)	48 µM (inactive)	32.7 µM (inactive)	41.4 µM (inactive)	36.6 µM (inactive)	18.5 µM (inactive)	74.6 µM (inactive)	69.5 µM (inactive)	52.6 µM (inactive)	30.2 µM (inactive)	30.5 µM (inactive)
Nc1ccc2c(O)cc(O)nc2n1	> 100 µM (inactive)	> 100 µM (inactive)	> 100 µM (inactive)	> 100 µM (inactive)	> 100 µM (inactive)	> 100 µM (inactive)	> 100 µM (inactive)	> 100 µM (inactive)	> 100 µM (inactive)	> 100 µM (inactive)	> 100 µM (inactive)	37.8 µM (inactive)	> 100 µM (inactive)	–	> 100 µM (inactive)	> 100 µM (inactive)	> 100 µM (inactive)	> 100 µM (inactive)	> 100 µM (inactive)
O=c1oc2ccc3ccccc3c2cc1-c1nc2ccccc2s1	> 100 µM (inactive)	> 23.1 µM (inactive)	> 100 µM (inactive)	> 100 µM (inactive)	> 100 µM (inactive)	> 100 µM (inactive)	> 100 µM (inactive)	> 100 µM (inactive)	> 100 µM (inactive)	> 20.6 µM (inactive)	> 100 µM (inactive)	> 100 µM (inactive)	> 100 µM (inactive)	> 100 µM (inactive)	> 100 µM (inactive)	> 100 µM (inactive)	> 100 µM (inactive)	> 100 µM (inactive)	–
CCOC(=O)n1c(=O)nc2c3c(ncn21)Oc1c(c(-c2ccccc2)nn1-c1ccccc1)C3c1ccc(Cl)cc1 (stereo not given)	1.52 µM (inactive)	1.65 µM (inactive)	1.71 µM (inactive)	1.71 µM (inactive)	–	1.5 µM (inactive)	1.36 µM (inactive)	1.75 µM (inactive)	1.66 µM (inactive)	1.08 µM (active)	1.65 µM (inactive)	1.84 µM (inactive)	1.73 µM (inactive)	1.48 µM (inactive)	1.79 µM (inactive)	1.84 µM (inactive)	1.7 µM (inactive)	1.49 µM (inactive)	–
Cc1ccc(S(=O)(=O)NC(=O)NNc2ccc(F)cc2)cc1	> 100 µM (inactive)	> 100 µM (inactive)	> 100 µM (inactive)	> 100 µM (inactive)	> 100 µM (inactive)	> 100 µM (inactive)	> 100 µM (inactive)	> 100 µM (inactive)	> 100 µM (inactive)	–	> 100 µM (inactive)	> 100 µM (inactive)	> 44 µM (inactive)	> 100 µM (inactive)	> 100 µM (inactive)	> 100 µM (inactive)	> 100 µM (inactive)	> 31.6 µM (inactive)	> 100 µM (inactive)
CC(C)C(C)C(O)C(O)C(C)C1CCC2C3COC(=O)C4CC(O)C(O)CC4(C)C3CCC12C (stereo not given)	> 100 µM (inactive)	48.9 µM (inactive)	25.4 µM (inactive)	> 100 µM (inactive)	43.7 µM (inactive)	> 100 µM (inactive)	32.8 µM (inactive)	35.9 µM (inactive)	78.7 µM (inactive)	39 µM (inactive)	56 µM (inactive)	> 100 µM (inactive)	> 100 µM (inactive)	–	> 100 µM (inactive)	> 100 µM (inactive)	> 100 µM (inactive)	58.1 µM (inactive)	27.1 µM (inactive)
